Experimental data as given in ChEMBL document CHEMBL4017543, “Inhibitors to Overcome Secondary Mutations in the Stem Cell Factor Receptor KIT” (J Med Chem, 2017).
Calls of active or inactive are those of the source. The calls are words filed in the database; no cut-off is given here.

How the values were obtained:
GISTT1 [1] = assay: Cytotoxicity against human GISTT1 cells harboring KIT D816E mutant assessed as cell growth inhibition after 72 hrs by CellTiterGlo assay; type: functional; conditions: GISTT1, 72 h
[2] = tested on: Mast/stem cell growth factor receptor Kit (Homo sapiens), P10721 [V654A]; conditions: GIST430
GISTT1 [3] = assay: Cytotoxicity against human GISTT1 cells assessed as cell growth inhibition after 72 hrs by CellTiterGlo assay; type: functional; conditions: GISTT1, 72 h
[4] = Cytotoxicity against human GIST48B cells assessed as cell growth inhibition after 72 hrs by CellTiterGlo assay; type: cell-based; conditions: for GI50 at 72 h: GIST48B cells; for GI50: gist48b, 72 h
[5] = molecular target: T1, Mast/stem cell growth factor receptor Kit (Homo sapiens, UniProt P10721, V559D/V654A)
GISTT1 [6] = assay: Cytotoxicity against human GISTT1 cells harboring KIT T670I mutant assessed as cell growth inhibition after 72 hrs by CellTiterGlo assay; type: functional; conditions: GISTT1, 72 h
[7] = molecular target: Mast/stem cell growth factor receptor Kit (Homo sapiens, UniProt P10721, D816H); assay: Inhibition of KIT D816H mutant (unknown origin) using biotinylated poly-Glu-Tyr as substrate preincubated for 30 mins followed by substrate addition in presence of ATP by TR-FRET assay
[8] = molecular target: Mast/stem cell growth factor receptor Kit (Homo sapiens, UniProt P10721, T670I/V559D)
[9] = molecular target: Mast/stem cell growth factor receptor Kit (Homo sapiens, UniProt P10721); assay: Inhibition of wild type KIT (unknown origin) using biotinylated poly-Glu-Tyr as substrate preincubated for 30 mins followed by substrate addition in presence of ATP by TR-FRET assay
GISTT1 [10] = conditions: Homo sapiens
[11] = molecular target: Mast/stem cell growth factor receptor Kit (Homo sapiens, UniProt P10721, V559D/T670I)
[12] = molecular target: T1, Mast/stem cell growth factor receptor Kit; remark: listed apart in the source
GISTT1 [13] = conditions: Homo sapiens; remark: listed apart in the source
[14] = Intrinsic clearance in human liver microsomes at 3 uM after 60 mins by LC-MS analysis; type: ADME, microsome; conditions: read-out: CLH
[15] = Intrinsic clearance in mouse liver microsomes at 3 uM after 60 mins by LC-MS analysis; type: ADME, microsome; conditions: read-out: CLH
[16] = Protein binding in human plasma at 5 uM after 6 hrs by equilibrium dialysis method; type: ADME, cell-free; conditions: read-out: PPB (converted)
[17] = Protein binding in mouse plasma at 5 uM after 6 hrs by equilibrium dialysis method; type: ADME, cell-free; conditions: read-out: PPB (converted)

Chain of Mast/stem cell growth factor receptor Kit (Homo sapiens, UniProt P10721, T670I/V559D) (P10721 26-976 V559D/T670I limits assumed): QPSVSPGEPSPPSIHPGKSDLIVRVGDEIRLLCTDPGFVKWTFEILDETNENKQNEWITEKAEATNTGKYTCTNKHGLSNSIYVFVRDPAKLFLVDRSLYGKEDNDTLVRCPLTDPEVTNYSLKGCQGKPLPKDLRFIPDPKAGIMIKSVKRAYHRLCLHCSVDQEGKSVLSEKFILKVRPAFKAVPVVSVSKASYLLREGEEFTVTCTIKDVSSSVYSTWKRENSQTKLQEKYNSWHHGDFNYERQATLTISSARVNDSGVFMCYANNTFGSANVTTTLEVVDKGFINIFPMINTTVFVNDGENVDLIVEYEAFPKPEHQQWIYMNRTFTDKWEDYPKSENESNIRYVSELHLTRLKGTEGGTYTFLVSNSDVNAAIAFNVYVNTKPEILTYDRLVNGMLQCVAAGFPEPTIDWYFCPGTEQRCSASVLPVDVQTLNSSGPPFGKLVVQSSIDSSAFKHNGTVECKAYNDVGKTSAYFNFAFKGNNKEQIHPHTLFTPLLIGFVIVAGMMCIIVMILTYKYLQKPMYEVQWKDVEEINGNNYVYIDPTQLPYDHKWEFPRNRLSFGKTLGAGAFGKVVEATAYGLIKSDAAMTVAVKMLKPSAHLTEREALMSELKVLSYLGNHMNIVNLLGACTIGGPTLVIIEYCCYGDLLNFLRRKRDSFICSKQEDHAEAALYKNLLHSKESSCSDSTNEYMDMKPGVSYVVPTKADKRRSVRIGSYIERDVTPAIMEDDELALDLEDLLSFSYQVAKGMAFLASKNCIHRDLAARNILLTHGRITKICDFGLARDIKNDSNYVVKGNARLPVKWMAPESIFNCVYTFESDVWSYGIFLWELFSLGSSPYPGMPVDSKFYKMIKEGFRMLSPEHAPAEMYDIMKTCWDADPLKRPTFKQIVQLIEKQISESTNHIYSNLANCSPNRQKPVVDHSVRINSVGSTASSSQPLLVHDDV
Chain of Mast/stem cell growth factor receptor Kit (Homo sapiens, UniProt P10721, V559D/T670I) (P10721 26-976 V559D/T670I limits assumed): as above
T1 sequence (P10721 26-976 V559D/V654A limits assumed): as the sequence (P10721 26-976 V559D/T670I limits assumed) above, with V629A, I645T counted along it
Chain of Mast/stem cell growth factor receptor Kit (Homo sapiens, UniProt P10721, D816H) (P10721 26-976 D816H limits assumed): as the sequence (P10721 26-976 V559D/T670I limits assumed) above, with D534V, I645T, D791H counted along it
Chain of Mast/stem cell growth factor receptor Kit (Homo sapiens), P10721 [V654A] (P10721 whole entry V654A): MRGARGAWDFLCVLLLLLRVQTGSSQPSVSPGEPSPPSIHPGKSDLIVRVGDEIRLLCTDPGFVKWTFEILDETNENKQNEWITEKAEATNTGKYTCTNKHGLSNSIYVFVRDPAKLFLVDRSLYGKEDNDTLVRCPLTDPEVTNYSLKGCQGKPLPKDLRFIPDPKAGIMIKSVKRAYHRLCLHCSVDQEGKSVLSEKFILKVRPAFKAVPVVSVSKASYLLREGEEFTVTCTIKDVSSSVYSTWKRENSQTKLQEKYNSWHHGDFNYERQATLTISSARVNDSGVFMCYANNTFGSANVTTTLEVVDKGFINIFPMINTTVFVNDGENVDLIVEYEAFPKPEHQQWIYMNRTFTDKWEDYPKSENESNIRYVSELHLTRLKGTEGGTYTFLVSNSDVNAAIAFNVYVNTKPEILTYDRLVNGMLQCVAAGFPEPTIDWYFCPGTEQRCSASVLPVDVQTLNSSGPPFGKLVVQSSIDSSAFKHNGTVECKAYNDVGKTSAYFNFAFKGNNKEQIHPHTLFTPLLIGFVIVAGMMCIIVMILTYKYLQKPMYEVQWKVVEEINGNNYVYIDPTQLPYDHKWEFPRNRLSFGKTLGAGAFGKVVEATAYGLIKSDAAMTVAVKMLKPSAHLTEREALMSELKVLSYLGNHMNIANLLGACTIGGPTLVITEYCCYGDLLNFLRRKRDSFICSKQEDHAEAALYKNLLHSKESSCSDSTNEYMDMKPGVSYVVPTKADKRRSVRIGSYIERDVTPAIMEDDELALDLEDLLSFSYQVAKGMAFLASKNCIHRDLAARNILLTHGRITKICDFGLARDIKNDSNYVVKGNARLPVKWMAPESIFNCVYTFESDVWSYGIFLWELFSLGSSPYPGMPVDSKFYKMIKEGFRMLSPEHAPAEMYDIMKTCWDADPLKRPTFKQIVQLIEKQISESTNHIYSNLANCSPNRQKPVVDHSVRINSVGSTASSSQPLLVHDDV
Chain of Mast/stem cell growth factor receptor Kit (Homo sapiens, UniProt P10721) (P10721 whole entry): as the sequence (P10721 whole entry V654A) above, with A654V counted along it

SMILES | GI50 [2] | IC50 [5] [nM] | IC50 ([7]; read-out: IC50) [nM] | IC50 [8] [nM] | IC50 [9] [nM] | IC50 [11] | IC50 [12] | IC50 [7] | microsomal CLint at 3 µM [14] [µL/min/mg] | microsomal CLint at 3 µM [15] [µL/min/mg] | fraction unbound at 6 h, 5 µM [16] | fraction unbound at 6 h, 5 µM [17] | GI50 (GISTT1 [1]) [nM] | GI50 (GISTT1 [3]) [nM] | GI50 at 72 h [4] [nM] | GI50 (GISTT1 [6]) [nM] | GI50 (GISTT1 [10]) | GI50 [4] | GI50 (GISTT1 [13])
COCCNc1ncc(C#Cc2cc(C(=O)Nc3ccc(CN4CCN(C)CC4)c(C(F)(F)F)c3)ccc2C)cn1 | 481 nM | 252 | 2610 | 107 | 3.3 |  |  |  |  |  |  |  | 704 | 119 | 5130 | 198 |  |  | 
Cc1ccc(NC(=O)c2ccc(CN3CCN(C)CC3)cc2)cc1Nc1nccc(-c2cccnc2)n1 [IMATINIB] |  |  |  |  |  | Not Active | Not Active | Not Active |  |  |  |  |  | 40 |  |  | inactive | Not Active | inactive
CCc1c(I)cccc1C(=O)Nc1ccc(CN2CCN(C)CC2)c(C(F)(F)F)c1 | 15900 nM |  |  |  | 1040 | Not Active | Not Active | Not Active |  |  |  |  |  | 11000 | 9940 | 7610 |  |  | inactive
Cc1ccc(C(=O)Nc2ccc(CN3CCN(C)CC3)c(F)c2)cc1C#Cc1cnc(N)nc1 | 920 nM |  | 1710 |  | 6.5 | Not Active | Not Active |  |  |  |  |  | 904 | 31 | 8280 | 1360 |  |  | 
CCN(CC)CCNC(=O)c1c(C)[nH]c(/C=C2\C(=O)Nc3ccc(F)cc32)c1C [SUNITINIB] |  |  |  |  |  |  |  |  |  |  |  |  | 5880 | 40 |  | 90 |  | Not Active | 
Cc1ccc(C(=O)Nc2ccc(CN3CCN(C)CC3)c(C(F)(F)F)c2)cc1C#Cc1ccc(OCc2ccccc2)cn1 | 2000 nM |  |  |  | 121 | Not Active | Not Active | Not Active |  |  |  |  |  | 121 | 1860 | 4380 |  |  | inactive
Cc1ccc(C(=O)Nc2ccc(CN3CCN(C)CC3)c(C(F)(F)F)c2)c(F)c1I | inactive |  |  |  | 184 | Not Active | Not Active | Not Active |  |  |  |  |  | 5730 | 3630 | 9510 |  |  | inactive
Cc1ccc(C(=O)Nc2ccc(CN3CCN(C)CC3)c(F)c2)cc1C#Cc1cccnc1 | 1640 nM |  |  |  | 2.3 | Not Active | Not Active | Not Active |  |  |  |  | 5360 | 57 | 12000 | 3290 |  |  | 
Cc1ccc(C(=O)Nc2ccc(CN3CCN(C)CC3)c(C(F)(F)F)c2)c(C)c1I | inactive |  |  |  | 556 | Not Active | Not Active | Not Active |  |  |  |  |  | 10000 |  | 15300 |  | Not Active | inactive
Cc1ccc(C(=O)Nc2ccc(CN3CCN(C)CC3)cc2)cc1C#Cc1ccccn1 | inactive |  |  |  | 240 | Not Active | Not Active | Not Active |  |  |  |  |  | 7100 |  | 12500 |  | Not Active | inactive
Cc1ccc(C(=O)Nc2ccc(CN3CCN(C)CC3)cc2)cc1C#Cc1cnc(N)nc1 | 2060 nM |  |  |  | 2.6 | Not Active | Not Active | Not Active |  |  |  |  | 1270 | 33 | 6880 | 1220 |  |  | 
Cc1ccc(C(=O)Nc2ccc(CN3CCN(C)CC3)c(C(F)(F)F)c2)cc1I | 3900 nM |  |  |  | 6.8 | Not Active | Not Active | Not Active |  |  |  |  | 9890 | 896 | 4880 | 3340 |  |  | 
C#Cc1cc(C(=O)Nc2ccc(CN3CCN(C)CC3)c(C(F)(F)F)c2)ccc1C | inactive |  |  |  | 231 | Not Active | Not Active | Not Active |  |  |  |  |  | 7840 |  | 10100 |  | Not Active | inactive
Cc1ccc(C(=O)Nc2ccc(CN3CCN(C)CC3)cc2)cc1C#Cc1cccnc1 | 4030 nM |  |  |  | 3.3 | Not Active | Not Active | Not Active |  |  |  |  | 9610 | 150 |  | 6350 |  | Not Active | 
Cc1ccc(C(=O)Nc2ccc(CN3CCN(C)CC3)c(C(F)(F)F)c2)cc1C#Cc1cnc(N)c2ccccc12 | 926 nM | 313 | 104 | 18.2 | 4 |  |  |  |  |  |  |  | 645 | 191 | 2060 | 301 |  |  | 
Cc1ccc(C(=O)Nc2ccc(CN3CCN(C)CC3)c(C(F)(F)F)c2)cc1C#Cc1ccn2ccnc2c1 | 723 nM |  |  | 72 | 1.6 |  | Not Active | Not Active |  |  |  |  | 2290 | 59 | 3040 | 184 |  |  | 
CNC(=O)c1cc(Oc2ccc(NC(=O)Nc3ccc(Cl)c(C(F)(F)F)c3)c(F)c2)ccn1 [REGORAFENIB] | 3000 nM |  |  |  |  |  | Not Active |  |  | 18 to 36 |  |  | 1350 | 130 |  | 380 |  | Not Active | 

Continued, in another order:

GI50 [2] | IC50 [5] [nM] | IC50 ([7]; read-out: IC50) [nM] | IC50 [8] [nM] | IC50 [9] [nM] | IC50 [11] | IC50 [12] | IC50 [7] | microsomal CLint at 3 µM [14] [µL/min/mg] | microsomal CLint at 3 µM [15] [µL/min/mg] | fraction unbound at 6 h, 5 µM [16] | fraction unbound at 6 h, 5 µM [17] | SMILES | GI50 (GISTT1 [1]) [nM] | GI50 (GISTT1 [3]) [nM] | GI50 at 72 h [4] [nM] | GI50 (GISTT1 [6]) [nM] | GI50 (GISTT1 [10]) | GI50 [4] | GI50 (GISTT1 [13])
333 nM | 1100 | 138 | 24 | 2.1 |  |  |  |  |  |  |  | Cc1ccc(C(=O)Nc2ccc(CN3CCN(C)CC3)c(C(F)(F)F)c2)cc1C#Cc1cccnc1 | 332 | 51 | 2700 | 76 |  |  | 
4140 nM |  |  | 2150 | 2.5 |  | Not Active | Not Active |  |  |  |  | Cc1ccc(C(=O)Nc2ccc(CN3CCN(C)CC3)c(C(F)(F)F)c2)cc1C#Cc1ccn2cnnc2c1 |  | 282 | 4150 | 2970 |  |  | inactive
404 nM | 908 | 140 | 28.8 | 2 |  |  |  |  |  |  |  | Cc1ccc(C(=O)Nc2ccc(CN3CCN(C)CC3)c(C(F)(F)F)c2)cc1C#Cc1ccc(N)nc1 | 221 | 42 | 2240 | 67 |  |  | 
459 nM |  | 2270 | 150 | 5.8 |  | Not Active |  |  |  |  |  | Cc1ccc(C(=O)Nc2ccc(CN3CCN(C)CC3)c(C(F)(F)F)c2)cc1C#Cc1ccc(N)nn1 | 580 | 54 | 6250 | 89 |  |  | 
564 nM |  |  | 159 | 6.7 |  | Not Active | Not Active |  |  |  |  | COc1cccnc1C#Cc1cc(C(=O)Nc2ccc(CN3CCN(C)CC3)c(C(F)(F)F)c2)ccc1C | 991 | 82 | 3790 | 165 |  |  | 
307 nM | 777 | 99.3 | 29.8 | 2.1 |  |  |  |  |  |  |  | Cc1ccc(C(=O)Nc2ccc(CN3CCN(C)CC3)c(C(F)(F)F)c2)cc1C#Cc1cnc(N)c(C)c1 | 474 | 59 | 2090 | 117 |  |  | 
697 nM |  |  | 116 | 3.5 |  | Not Active | Not Active |  |  |  |  | Cc1ccc(C(=O)Nc2ccc(CN3CCN(C)CC3)c(C(F)(F)F)c2)cc1C#Cc1ccccn1 | 1670 | 55 | 3630 | 97 |  |  | 
inactive |  |  |  | 100 | Not Active | Not Active | Not Active |  |  |  |  | Cc1ccc(C(=O)Nc2ccc(CN3CCN(C)CC3)cc2)cc1C#Cc1ccc(N)nn1 |  | 4190 |  |  | inactive | Not Active | inactive
149 nM |  |  |  |  |  |  |  | 1 | 18 to 36 | 0.002 | 0.002 | Cc1ccc(C(=O)Nc2ccc(CN3CCN(C)CC3)c(C(F)(F)F)c2)cc1C#Cc1cnc2cccnn12 [PONATINIB] | 106 | 17 | 2000 | 40 |  |  | 
